One data set relates to CCLE NSCLC cell lines. In words: PRISM drug screen, growth inhibitory activity in CCLE NSCLC cell lines. Type of data set: cell-based. To be noted: Homo sapiens, read-out: average IC50 or EC50 value. An excerpt: The growth inhibitory activity of 4,518 drugs was quantified in 578 human cancer cell lines using the PRISM molecular barcoding and multiplexed screening method. The PRISM dataset is available at the Cancer Dependency Map portal (https://depmap.org/portal/download/, accessed on 1 Apr. 2021). Drug responses of 9 commonly used chemotherapeutic regimens in treating NSCLC were included: carboplatin, cisplatin, paclitaxel, docetaxel, gemcitabine, vinorelbine, etoposide, gefitinib, and erlotinib. For each drug, cell lines with IC50 or EC50 value higher than the maximum dose were defined as resistant; cell lines with IC50 or EC50 value lower than the minimum dose were defined as sensitive. The remaining cell lines were divided into groups of resistant, sensitive, or partial response by using the mean±0.5 standard deviation (SD) of the drug activity metrics, including IC50, ln(IC50), EC50, or ln(EC50) values. Cell lines with a drug activity value less than the mean−0.5 SD were defined as sensitive to the drug, and those with a drug activity value between the mean+0.5 SD and the mean−0.5 SD were defined as having a partial response to the drug. Cell lines with a drug activity value greater than the mean+0.5 SD were defined as resistant to the drug. This categorization corresponds to the RECIST 1.1 system (i.e., complete response, partial response, and stable disease/disease progression) in evaluating chemotherapeutic response in solid tumors.
The growth inhibitory activity of 4,518 drugs was quantified in 578 human cancer cell lines using the PRISM molecular barcoding and multiplexed screening method. The PRISM dataset is available at the Cancer Dependency Map portal (https://depmap.org/portal/download/, accessed on 1 Apr. 2021). Drug responses of 9 commonly used chemotherapeutic regimens in treating NSCLC were included in this study: carboplatin, cisplatin, paclitaxel, docetaxel, gemcitabine, vinorelbine, etoposide, gefitinib, and erlotinib. For each drug, cell lines with IC50 or EC50 value higher than the maximum dose were defined as resistant; cell lines with IC50 or EC50 value lower than the minimum dose were defined as sensitive. The remaining cell lines were divided into groups of resistant, sensitive, or partial response by using the mean±0.5 standard deviation (SD) of the drug activity metrics, including IC50, ln(IC50), EC50, or ln(EC50) values. Cell lines with a drug activity value less than the mean−0.5 SD were defined as sensitive to the drug, and those with a drug activity value between the mean+0.5 SD and the mean−0.5 SD were defined as having a partial response to the drug. Cell lines a drug activity value greater than the mean+0.5 SD were defined as resistant to the drug. This categorization corresponds to the RECIST 1.1 system (i.e., complete response, partial response, and stable disease/disease progression) in evaluating chemotherapeutic response in solid tumors.

For data set [1], the system named is human NSCLC epithelial cell lines. Nature of the data set: PRISM/GDSC drug response in human NSCLC epithelial cell lines (n=135). The format is cell-based. To be noted: average in human NSCLC epithelial cell lines (FIG. 18C). An excerpt: (§1) The PRISM dataset. was obtained from the DepMap portal (https://depmap.org/portal/download/, PRISM repurposing 19Q4, accessed on 1 Apr. 2021). Carboplatin, cisplatin, docetaxel, erlotinib, etoposide, gefitinib, gemcitabine, paclitaxel (Taxol), pemetrexed, and vinorelbine were commonly used chemotherapeutic drugs in NSCLC treatment, the analysis focused on these ten regiments. Drug activity measurements, including IC50, ln(IC50), EC50, and ln(EC50), were used in the analysis. The available CCLE NSCLC cell lines were divided into three groups by the drug activity measurements: sensitive, resistant, and intermediate.
(§2) Drug activity measurements were generated in the GDSC Project. (https://www.cancerrxgene.org/downloads/bulk_download, accessed on 15 Apr. 2021). IC50 and ln(IC50) were the main metrics used in this analysis. The available CCLE NSCLC cell lines were divided into three groups by the drug activity measurements in the GDSC1/2 datasets, i.e., sensitive, resistant, and intermediate.

Data set [2] deals with NSCLC. The settings on record: combination with gefitinib in NSCLC; cited from earlier work.
The test system of data set [3] is NSCLC. To be noted: stage IIIB, after chemoradiation, cited from earlier work.
The subject of data set [4] is mRNA expression of CD27, PD1, or PDL1. In words: Pearson correlation of drug concentration (PRISM, GDSC1, GDSC2) with mRNA expression of immune checkpoint genes in CCLE NSCLC cell lines. On the set-up: species or system human. The settings on record: p<0.05, Pearson's correlation, datasets PRISM, CCLE NSCLC cell lines (n=117). An excerpt: The growth inhibitory activity of 4,518 drugs was quantified in 578 human cancer cell lines using the PRISM molecular barcoding and multiplexed screening method. The PRISM dataset is available at the Cancer Dependency Map portal (https://depmap.org/portal/download/, accessed on 1 Apr. 2021). Drug responses of 9 commonly used chemotherapeutic regimens in treating NSCLC were included: carboplatin, cisplatin, paclitaxel, docetaxel, gemcitabine, vinorelbine, etoposide, gefitinib, and erlotinib. For each drug, cell lines with IC50 or EC50 value higher than the maximum dose were defined as resistant; cell lines with IC50 or EC50 value lower than the minimum dose were defined as sensitive. The remaining cell lines were divided into groups of resistant, sensitive, or partial response by using the mean±0.5 standard deviation (SD) of the drug activity metrics, including IC50, ln(IC50), EC50, or ln(EC50) values. Cell lines with a drug activity value less than the mean−0.5 SD were defined as sensitive to the drug, and those with a drug activity value between the mean+0.5 SD and the mean−0.5 SD were defined as having a partial response to the drug. Cell lines with a drug activity value greater than the mean+0.5 SD were defined as resistant to the drug. This categorization corresponds to the RECIST 1.1 system (i.e., complete response, partial response, and stable disease/disease progression) in evaluating chemotherapeutic response in solid tumors. Drug screening data was downloaded from Genomics of Drug Sensitivity in Cancer (GDSC) Project (https://www.cancerrxgene.org/downloads/bulk_download, accessed on 15 Apr. 2021). The GDSC Project screened more than 1,000 genetically characterized human cancer cell lines with a wide range of anti-cancer therapeutic agents. Among the commonly used chemotherapeutic regimens in treating NSCLC drugs, […] were found in GDSC1, including cisplatin, docetaxel, erlotinib, etoposide, gefitinib, gemcitabine, pemetrexed, and vinorelbine; 7 were found in GDSC2, including cisplatin, docetaxel, erlotinib, gefitinib, gemcitabine, paclitaxel, and vinorelbine. For each drug, cell lines were defined as resistant, sensitive, or partial response by using the mean±0.5 SD of the IC50 values as described above. Various statistical methods can be utilized. Statistical analysis was performed using Rstudio version 1.4.1106. […] Survival analysis was performed using Kaplan-Meier analysis with the survival package in R. Log-rank tests were used to assess the difference in survival probability from different groups in Kaplan-Meier analyses. The genes in the networks were evaluated with Cox proportional hazard model and Kaplan-Meier analysis. Pearson's correlation test was used to find the relationship be-tween two variables. The multivariate Cox regression analysis was used to build the model of risk-scores. […] Pearson's correlation test was used to find the relationship between two variables. One-tailed two proportion z-test was used to compare if two proportions are the same.

For a further data set, the system named is NSCLC cells. The settings on record: cited from earlier work.
Data set [5] relates to gene expression of CD27, PD1, CTLA4, or PDL1. In words: Pearson correlation of drug-response measurements with gene expression of ICIs in human NSCLC epithelial cell lines. To be noted: for correlation of EC50 with CD27 mRNA expression: p<0.05, Pearson's correlation test, NSCLC cell lines (n=79, FIG. 18B).
From the text: as §1, §2
RStudio (version 1.4.1106), an integrated development environment for R, was used as the main tool for performing the statistical analyses. A two-tailed, unpaired Student's t-test was used to evaluate the significance of differential expression between two groups. Survival analysis and curves were generated using the Kaplan-Meier method, and log-rank tests were used to assess the difference in survival probability between different groups. The univariate and multivariate Cox regression analyses were used in the prognostic evaluation and curve generation with R packages “survival”, “survminer”, and “ggplot2”. The strength of the linear relationship between two sample groups was measured with Pearson's correlation test. Results in statistical tests were considered significant with a p-value<0.05.
Several targeted therapeutic candidates were identified with CMap.

Data set [6] concerns xenograft mouse model of lung cancer. To be noted: cited from earlier work.
In another data set the test system is resected NSCLC tumors. To be noted: neoadjuvant; 9 of 20 resected NSCLC tumors, stages I, II, and IIIA; cited from earlier work.
In data set [7] the test system is FRα (FOSL1)-positive advanced solid tumors. The settings on record: patient derived xenograft models and phase I study; cited from earlier work. For orientation: Xenograft models place foreign cells or tissue in a host animal.
The test system of data set [8] is advanced solid tumors including NSCLC. To be noted: single-agent, cited from earlier work.
Setting [9] is: CCLE NSCLC cell lines, 7-gene network study (FIG. 13C).
Setting [10] is: average over CCLE NSCLC cell lines (n=117), 8 doses 0.0006 μM to 10 μM.

Like-named read-outs stand apart in the source and are kept apart here.

The IC50 is the point on the concentration scale where inhibition reaches its midpoint. Broadly, the EC50 is the concentration at which the effect is half-maximal. Higher therefore signals a less potent agent. Turning to `C[C@]12O[C@H](C[C@]1(O)CO)n1c3ccccc3c3c4c(c5c6ccccc6n2c5c31)CNC4=O` [lestaurtinib], in the data set with CCLE NSCLC cell lines (setting [9]), the IC50 is ≤ 1 µM. Also, in data set [1], the EC50 was < 1 µM and the IC50 was < 1 µM.
As to `Cc1nc(Nc2ncc(C(=O)Nc3c(C)cccc3Cl)s2)cc(N2CCN(CCO)CC2)n1` [dasatinib], the IC50 in the data set on CCLE NSCLC cell lines (setting [9]) was ≤ 1 µM.
Turning to `CC(C)c1ccccc1Cc1cc(C(=O)Nc2ccc(S(=O)(=O)c3ccccc3C(C)(C)C)cc2)c(O)c(O)c1O` [TW-37], the “effect on pro-apoptosis and anti-migration ability of gefitinib” value in the data set on NSCLC [2] was “enhanced”.
In the case of durvalumab: anti-PD-L1, the “median OS” value with NSCLC [3] (durvalumab arm) is listed as “not reached”. The “overall survival HR vs placebo arm” value in the data set on NSCLC [3] (phase III randomized trial) is on record as 0.69 (95% CI 0.55-0.86).
Consider ivermectin, for which, in [4], the “correlation of drug concentration [IC50, EC50, ln(IC50), or ln(EC50)] with mRNA expression of CD27, PD1, or PDL1” value was “significant negative correlation”.
As to `CCN(CC)C(=S)SSC(=S)N(CC)CC` [disulfiram], the IC50 in the data set with CCLE NSCLC cell lines (setting [10]) is < 1 µM.
Take `O=C1c2c(O)ccc(O)c2C(=O)c2c(NCCNCCO)ccc(NCCNCCO)c21` [mitoxantrone]: in the data set on CCLE NSCLC cell lines (setting [10]), the IC50 is < 1 µM. Besides, in [4], the “correlation of drug concentration [IC50, EC50, ln(IC50), or ln(EC50)] with mRNA expression of CD27, PD1, or PDL1” value is “significant negative correlation”.
For `C[C@H]1[C@H](NC(=O)/C(=N\OC(C)(C)C(=O)O)c2csc(N)n2)C(=O)N1S(=O)(=O)O` [aztreonam], the “correlation of drug concentration [IC50, EC50, ln(IC50), or ln(EC50)] with mRNA expression of CD27, PD1, or PDL1” value in [4] is “significant negative correlation”.
With `COc1cc(/C=C/C(=O)N2CCC=CC2=O)cc(OC)c1OC` [piperlongumine], in data set [4], the “correlation of drug concentration [IC50, EC50, ln(IC50), or ln(EC50)] with mRNA expression of CD27, PD1, or PDL1” value is reported as “significant negative correlation”.
Turning to `CCc1c2c(nc3ccc(OC(=O)N4CCC(N5CCCCC5)CC4)cc13)-c1cc3c(c(=O)n1C2)COC(=O)[C@]3(O)CC` [irinotecan], the “correlation of drug concentration [IC50, EC50, ln(IC50), or ln(EC50)] with mRNA expression of CD27, PD1, or PDL1” value in data set [4] is reported as “significant negative correlation”.
Take `Cc1cnc(Nc2ccc(OCCN3CCCC3)cc2)nc1Nc1cccc(S(=O)(=O)NC(C)(C)C)c1` [TG-101348]: in the data set with NSCLC cells, the PDL1 protein expression result was “reduced PDL1 protein expression” and the erlotinib-resistance result is listed as “reversed erlotinib-resistance”. Moreover, the “association with PDL1 gene expression” value in data set [5] (human NSCLC epithelial cell lines) is given as “inhibitory association”. Further, the “radiosensitization and EMT blockade” value in [6] was “mediated radiosensitization and EMT blockade”.
For nivolumab: PD-1 inhibitor, the pathological response with resected NSCLC tumors is given as 45%.
Turning to `CC1CC(OC(=O)c2ccccc2O)CC(C)(C)C1` (stereo not shown) [homosalate], the IC50 with CCLE NSCLC cell lines (setting [9]) was ≤ 1 µM.
On to MORAb-202, for which the antitumor response entry in data set [7] was “robust antitumor response”.
In the case of `COc1ccc(C[C@H](N)C(=O)N[C@H]2[C@@H](O)[C@H](n3cnc4c(N(C)C)ncnc43)O[C@@H]2CO)cc1` [puromycin], the “correlation of drug concentration [IC50, EC50, ln(IC50), or ln(EC50)] with mRNA expression of CD27, PD1, or PDL1” value in [4] is reported as “significant negative correlation”.
For `CO[C@@H](C(=O)N1Cc2n[nH]c(NC(=O)c3ccc(N4CCN(C)CC4)cc3)c2C1)c1ccccc1` [danusertib], the “correlation of EC50 with CD27 mRNA expression” value in data set [5] is recorded as “significant negative correlation”. In addition, in data set [5] (listed as Danusertib), the “correlation of EC50 with CD27 mRNA expression” value is on record as “inhibitory association”. Besides, the anti-tumor activity result in data set [8] (common solid tumor types) was “marginal anti-tumor activity”. Also, the tolerability result in data set [8] (phase I and phase II clinical studies) was “well tolerated”. Besides, in [1], the EC50 is < 1 µM and the IC50 was < 1 µM.
In the case of `OC1(c2ccc(Cl)c(C(F)(F)F)c2)CCN(CCCC(c2ccc(F)cc2)c2ccc(F)cc2)CC1` [penfluridol], the half-inhibitory concentration (IC50) in the data set on CCLE NSCLC cell lines (setting [9]) is ≤ 1 µM.
For the molecule `COc1cccc2c1C(=O)c1c(O)c3c(c(O)c1C2=O)C[C@@](O)(C(=O)CO)C[C@@H]3O[C@H]1C[C@H](N)[C@H](O)[C@H](C)O1` [doxorubicin], in the data set with CCLE NSCLC cell lines (setting [10]), the IC50 was < 1 µM.
`CC(/C=C/C(=O)NO)=C\[C@@H](C)C(=O)c1ccc(N(C)C)cc1` [trichostatin A]: in data set [4], the “correlation of drug concentration [IC50, EC50, ln(IC50), or ln(EC50)] with mRNA expression of CD27, PD1, or PDL1” value is reported as “significant negative correlation”.

These data come from US20250019769A1, “REPURPOSING DRUGS FOR NON-SMALL CELL LUNG CANCER” (WEST VIRGINIA UNIVERSITY BOARD OF GOVERNORS ON BEHALF OF …, priority 2021, published 2025).
